Consider 24 molecules from patent US20050197350A1, “Novel quinoline, tetrahydroquinazoline, and pyrimidine derivatives and methods of treatment related to the use thereof” (TAISHO PHARMACEUTICAL CO., LTD., priority 2003, published 2005).

pIC50: −log10 of the molar value. Where a name gives a salt, the structure may show the parent alone. Read-outs that look alike come from different tables or passages of the source.

For this assay, the target named is MCH receptor (Homo sapiens, UniProt Q99705). Nature of the assay: High throughput functional screening FLIPR/FDSS6000 (intracellular Ca2+ evoked by MCH). It is filed as cell-based. The conditions noted are these: FLIPR/FDSS, antagonist activity vs 50 nM MCH. In a few lines: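 For antagonist testing, compound-treated cells (30 min, 37 °C) were stimulated with 50 nM MCH and intracellular Ca2+ followed by Fluo4 fluorescence on FLIPR/FDSS6000. Receptor was a constitutively active, non-endogenous MCH receptor; dye loading 4 μM Fluo4-AM, 1 h, 37 °C.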

Setting [1] is: class by percent of control at 10^−7 M or IC50, table after the classification, read-out: class.
[2] abbreviates: class by percent of control at 10^−7 M or IC50, read-out: class.

Take `COc1cccc(OCC(=O)N[C@H]2CC[C@@H](Nc3nccc(N(C)C)n3)CC2)c1` [Example 3394, N-[cis-4-(4-Dimethylamino-pyrimidin-2-ylamino)-cyclohexyl]-2-(3-methoxy-phenoxy)-acetamide hydrochloride]: the pIC50 under setting [1] was more than 7.30.
For the molecule `Cc1cnc(NC2CCC(C(=O)N[C@@H](C)c3cccc(C(F)(F)F)c3)CC2)nc1N(C)C` (stereo partly drawn) [Example 3298, 4-{[4-(dimethylamino)-5-methylpyrimidin-2-yl]amino}-N-{(1S)-1-[3-(trifluoromethyl)phenyl]ethyl}cyclohexanecarboxamide], the pIC50 under setting [2] was more than 7.30.
For `Cc1cnc(N[C@H]2CC[C@@H](NC(=O)c3cc(F)c(F)c(F)c3)CC2)nc1N(C)C` [Example 3389, N-[cis-4-(4-Dimethylamino-5-methyl-pyrimidin-2-ylamino)-cyclohexyl]-3,4,5-trifluoro-benzamide hydrochloride], the pIC50 under setting [1] is more than 7.30.
The same measure, in the same setting: as for `O=C(N[C@H]1CC[C@@H](Nc2ccc3ccccc3n2)CC1)c1cccnc1Oc1ccccc1Br` [Example 3048, 2-(2-Bromophenoxy)-N-[cis-4-(quinolin-2-ylamino)-cyclohexyl]-nicotinamide hydrochloride], the figure is more than 7.30; as for `Cc1cc(N[C@H]2CC[C@@H](NC(=O)C3c4ccccc4Oc4ccccc43)CC2)nc2ccccc12` [Example 3082, 9H-Xanthene-9-carboxylic acid-[cis-4-(4-methyl-quinolin-2-ylamino)-cyclohexyl]-amide hydrochloride], more than 7.30.
On to `CNc1nc(N[C@H]2CC[C@@H](NC(=O)COc3cc(C(F)(F)F)ncn3)CC2)ncc1C` [Example 3363, N-(cis-4-{[5-methyl-4-(methylamino)pyrimidin-2-yl]amino}-cyclohexyl)-2-{[6-(trifluoromethyl)pyrimidin-4-yl]oxy}acetamide], for which the pIC50 under setting [2] is less than 6.70.
On the same count and under the same terms, as for `COc1ccc(NC(=O)N[C@H]2CC[C@@H](Nc3ncc(C)c(N(C)C)n3)CC2)cc1OC` [Example 3323, N-(3,4-dimethoxyphenyl)-N′-(cis-4-{[4-(dimethylamino)-5-methylpyrimidin-2-yl]amino}cyclohexyl)urea], the figure is more than 7.30.
`Cc1cc(N[C@H]2CC[C@@H](NC(=O)c3ccc(-n4ccnc4)nc3)CC2)nc2ccccc12` [Example 3187, 6-Imidazol-1-yl-N-[cis-4-(4-methyl-quinolin-2-ylamino)-cyclohexyl]-nicotinamide dihydrochloride]: the pIC50 under setting [1] was less than 6.70.
Take `CCN(C(=O)N[C@H]1CC[C@@H](Nc2ncc(C)c(N(C)C)n2)CC1)c1ccccc1` [Example 3350, N′-(cis-4-{[4-(dimethylamino)-5-methylpyrimidin-2-yl]amino}cyclohexyl)-N-ethyl-N-phenylurea]: the pIC50 under setting [2] is more than 7.30.
Turning to `Cc1cc(N[C@H]2CC[C@@H](NC(=O)c3ccncc3)CC2)nc2ccccc12` [Example 3183, N-[cis-4-(4-Methyl-quinolin-2-ylamino)-cyclohexyl]-isonicotinamide hydrochloride], under setting [1], the pIC50 is less than 6.70.
Take `CCN(C(=O)N[C@H]1CC[C@@H](Nc2ncc(C)c(N(C)C)n2)CC1)c1cc(C(F)(F)F)cc(C(F)(F)F)c1` [Example 3354, N-[3,5-bis(trifluoromethyl)phenyl]-N′-(cis-4-{[4-(dimethylamino)-5-methylpyrimidin-2-yl]amino}cyclohexyl)-N-ethylurea]: under setting [2], the pIC50 was more than 7.30.
With `O=C(N[C@H]1CC[C@@H](Nc2ccc3ccccc3n2)CC1)c1cccnc1Oc1ccc(Br)cc1` [Example 3058, 2-(4-Bromo-phenoxy)-N-[cis-4-(quinolin-2-ylamino)-cyclohexyl]-nicotinamide hydrochloride], the pIC50 under setting [1] is more than 7.30.
Still for that read-out and setting: with `Cc1cc(N[C@H]2CC[C@@H](NC(=O)COc3ccc(F)c(Cl)c3)CC2)nc2ccccc12` [Example 3100, 2-(3-Chloro-4-fluoro-phenoxy)-N-[cis-4-(4-methyl-quinolin-2-ylamino)-cyclohexyl]-acetamide hydrochloride] the figure was more than 7.30; with `CN(C)c1nc(N[C@H]2CC[C@@H](NC(=O)c3cccnc3Oc3ccccc3)CC2)nc2c1CCCC2` [Example 3107, N-[cis-4-(4-Dimethylamino-5,6,7,8-tetrahydro-quinazolin-2-ylamino)-cyclohexyl]-2-phenoxy-nicotinamide hydrochloride], more than 7.30.
The same measure, in the same setting: with `CN(C)c1ccnc(N[C@H]2CC[C@@H](NC(=O)c3cccnc3)CC2)n1` [Example 3209, N-[cis-4-(4-Dimethylamino-pyrimidin-2-ylamino)-cyclohexyl]-nicotinamide dihydrochloride] the figure was less than 6.70.
On the same count and under the same terms, with `COc1ccc(Oc2ncccc2C(=O)N[C@H]2CC[C@@H](Nc3ccc4ccccc4n3)CC2)cc1` [Example 3059, 2-(4-Methoxy-phenoxy)-N-[cis-4-(quinolin-2-ylamino)-cyclohexyl]-nicotinamide hydrochloride] the figure was more than 7.30; with `COc1cc(OC)cc(C(=O)N[C@H]2CC[C@@H](Nc3ccc4ccccc4n3)CC2)c1` [Example 3039, 3,5-Dimethoxy-N-[cis-4-(quinolin-2-ylamino)-cyclohexyl]-benzamide hydrochloride], more than 7.30.
`Cc1cc(N[C@H]2CC[C@@H](NC(=O)c3cccnc3O)CC2)nc2ccccc12` [Example 3173, 2-Hydroxy-N-[cis-4-(4-methyl-quinolin-2-ylamino)-cyclohexyl]-nicotinamide hydrochloride]: the pIC50 under setting [1] was less than 6.70.
As to `Cc1cc(N[C@H]2CC[C@@H](NC(=O)c3ccc(F)cc3F)CC2)nc2ccccc12` [Example 3163, 2,4-Difluoro-N-[cis-4-(4-methyl-quinolin-2-ylamino)-cyclohexyl]-benzamide hydrochloride], the pIC50 under setting [1] was more than 7.30.
As for `Cc1cc(N[C@H]2CC[C@@H](C(=O)N[C@@H](C)c3cc(C(F)(F)F)cc(C(F)(F)F)c3)CC2)nc2ccccc12` [Example 3309, cis-N-{(1S)-1-[3,5-bis(trifluoromethyl)phenyl]ethyl}-4-[(4-methylquinolin-2-yl)amino]cyclohexanecarboxamide], under setting [2], the pIC50 was 6.70 to 7.30.
Turning to `Cc1cc(N[C@H]2CC[C@@H](NC(=O)c3cccc(F)c3F)CC2)nc2ccccc12` [Example 3162, 2,3-Difluoro-N-[cis-4-(4-methyl-quinolin-2-ylamino)-cyclohexyl]-benzamide hydrochloride], the pIC50 under setting [1] is 6.70 to 7.30.
For the molecule `Cc1cccc(C(=O)N[C@H]2CC[C@@H](Nc3nc(C)cc(N(C)C)n3)CC2)c1` [Example 2526, N-(cis-4-{[4-(Dimethylamino)-6-methylpyrimidin-2-yl]amino}cyclohexyl)-3-methylbenzamide trifluoroacetate], the pIC50 (representative examples, read-out: IC50) is 8.12.
On to `Cc1cc(CN[C@H]2CC[C@@H](NC(=O)c3ccc(F)c(F)c3)CC2)nc2ccccc12` [Example 3366, 3,4-difluoro-N-(cis-4-{[(4-methylquinolin-2-yl)methyl]amino}cyclohexyl)benzamide], for which, under setting [2], the pIC50 was less than 6.70.
Consider `CNc1ccnc(N[C@H]2CC[C@@H](NC(=O)c3ccc(F)c(Cl)c3)CC2)n1` [Example 3224, 3-Chloro-4-fluoro-N-[cis-4-(4-methylamino-pyrimidin-2-ylamino)-cyclohexyl]-benzamide hydrochloride], for which the pIC50 under setting [1] was 6.70 to 7.30.
